# Key:
# [1] = cited from earlier work
# [2] = target: T1, estrogen receptor (rat uterine cytosol) (Rattus norvegicus, UniProt P06211); assay: Relative binding affinity (RBA), rat uterine cytosol, inhibition of (3H)estradiol binding; conditions: RBA = [I50](estradiol)/[I50](test compound) × 100; 18° C., 30 minutes, 5×10^-9 M (3H)estradiol
# T1 construct: from tissue; host or cells: immature rat uterus, cytosol
# T1 sequence (P06211 1-600): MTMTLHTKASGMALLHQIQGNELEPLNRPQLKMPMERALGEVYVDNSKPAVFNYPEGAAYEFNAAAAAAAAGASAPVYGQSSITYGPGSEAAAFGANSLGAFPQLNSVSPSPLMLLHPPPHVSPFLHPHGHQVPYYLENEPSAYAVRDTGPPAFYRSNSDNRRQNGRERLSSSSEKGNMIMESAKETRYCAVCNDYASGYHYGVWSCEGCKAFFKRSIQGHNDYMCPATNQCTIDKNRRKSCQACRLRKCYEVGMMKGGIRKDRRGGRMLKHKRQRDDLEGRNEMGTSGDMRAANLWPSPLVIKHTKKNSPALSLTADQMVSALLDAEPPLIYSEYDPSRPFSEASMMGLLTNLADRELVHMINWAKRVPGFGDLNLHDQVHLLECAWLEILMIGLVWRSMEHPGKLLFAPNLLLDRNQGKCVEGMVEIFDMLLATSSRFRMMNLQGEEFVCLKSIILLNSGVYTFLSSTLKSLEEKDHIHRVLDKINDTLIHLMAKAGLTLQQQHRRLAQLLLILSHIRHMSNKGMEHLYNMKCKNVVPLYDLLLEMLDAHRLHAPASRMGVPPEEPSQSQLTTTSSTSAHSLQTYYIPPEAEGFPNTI
# Method: Immature rat uterine cytosol was incubated at 18° C. for 30 minutes with 5×10^-9 M (^3 H)estradiol in the absence and presence of increasing amounts (10^-9 -10^-5 M) of the test compound or unlabelled estradiol (control). Unbound compounds were then removed with dextran-coated charcoal, and the amounts of estrogen receptor-bound (^3 H)estradiol were measured.
# (§1) The higher the values in the rat uterine cytosol test the greater the antiestrogenic effect. In the whole cell test, on the other hand, the estrogen receptors are localised in the cell nucleus and therefore bound to DNA. In the whole cell test, a low value indicating poor binding to cell nucleus ER and consequently low estrogenicity, can be considered favorable.
# [3] = target: T2, estrogen receptor (MCF-7 whole cells) (Homo sapiens, UniProt P03372); assay: Relative binding affinity (RBA), MCF-7 whole cell assay, inhibition of (3H)estradiol binding; conditions: RBA = [I50](estradiol)/[I50](test compound) × 100; 37° C., 50 minutes, 10^-9 M (3H)estradiol
# T2 construct: host or cells: MCF-7 whole cells
# T2 sequence (P03372 1-595): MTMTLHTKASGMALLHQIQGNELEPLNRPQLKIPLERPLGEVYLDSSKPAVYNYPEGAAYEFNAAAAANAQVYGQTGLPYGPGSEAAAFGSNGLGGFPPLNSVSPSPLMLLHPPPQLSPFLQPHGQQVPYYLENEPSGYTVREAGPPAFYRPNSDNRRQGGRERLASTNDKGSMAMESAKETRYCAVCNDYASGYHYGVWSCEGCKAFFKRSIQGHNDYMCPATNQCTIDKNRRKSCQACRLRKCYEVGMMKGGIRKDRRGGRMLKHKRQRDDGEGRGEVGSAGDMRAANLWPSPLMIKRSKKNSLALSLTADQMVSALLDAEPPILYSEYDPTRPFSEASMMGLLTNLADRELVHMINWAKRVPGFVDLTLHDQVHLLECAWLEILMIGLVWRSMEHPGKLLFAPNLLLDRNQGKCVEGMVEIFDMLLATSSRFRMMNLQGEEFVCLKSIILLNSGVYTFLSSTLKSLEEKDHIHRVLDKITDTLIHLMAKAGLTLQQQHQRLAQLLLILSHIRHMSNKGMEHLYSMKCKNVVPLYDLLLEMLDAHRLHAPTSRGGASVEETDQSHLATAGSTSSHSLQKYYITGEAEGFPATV
# Method: A whole cell assay was then performed using the MCF-7 human breast cancer cell line obtained from the Michigan Cancer Foundation, Detroit, USA. MCF-7 cells were maintained at 37° C. in monolayer culture in closed T-25 dishes in mininal essential medium (MEM) supplemented with L-glutamine (0.6 mg/ml), gentamycin (40 micrograms/ml). penicillin (100 U/ml) streptomycin (100 micrograms/ml) and 10% inactivated fetal calf serum (inactivated for 1 hour at 56° C.). The MCF-7 cells were incubated at 37° C. for 50 minutes with 10^-9 M (^3 H)estradiol in the absence or presence of increasing amounts (10^-10 -10^-5 M) of the test compound or unlabelled estradiol (control). Bound compounds were then extracted with ethanol, and the amounts of estrogen receptor bound (^3 H) estradiol were measured. The RBA values were calculated as for the rat uterine cytosol.
# as §1
# MCF-7 cells = assay: MCF-7 cell growth, % of control; assay type: cell-based, human; conditions: for activity at 1 µM / activity at 0.1 µM / activity at 0.01 µM: Homo sapiens, MCF7, 37° C., 24 hours, ± standard deviation of four samples, >100 = growth stimulating (estrogenic); for activity at 1 µM: 10^-6 M; for activity at 0.1 µM: 10^-7 M; for activity at 0.01 µM: 10^-8 M; for activity in MCF-7 cell growth tests (in words): evaluation of Table 2, compared with tamoxifen
# estrogen receptor (ER) = conditions: prior art; cited from earlier work
# estrogen receptor [4] = conditions: K. E. Allen et al. (1980); cited from earlier work
# rat uterine weight = conditions: compared with tamoxifen; K. E. Allen et al. (1980); cited from earlier work
# [5] = in vivo; prior art; cited from earlier work
# estrogen receptor [6] = conditions: prior art; cited from earlier work
# [7] = tested on: estrogen receptor-positive breast cancer; assay: Potency in relation to estrogen receptor-positive breast cancer (summary statement); conditions: compared with tamoxifen
SMILES,activity at 1 µM (MCF-7 cells),activity at 0.1 µM (MCF-7 cells),activity at 0.01 µM (MCF-7 cells),also measured
CC/C(=C(\c1ccc(OC)cc1)c1ccc(OCCN(C)C)cc1)c1ccccc1 [4-methoxy derivative],–,–,–,"activity in other tests ([1]; compared with tamoxifen, K. E. Allen et al. (1980)): about the same as tamoxifen"
"CC/C(=C(\c1ccc(Br)cc1)c1ccc(OCCN(C)C)cc1)c1ccccc1 [4-Bromotamoxifen, E 1-[4-(2-dimethylaminoethoxy)phenyl]-1-(4-bromophenyl)-2-phenyl-1-butene]",63 ± 8%,101 ± 8%,130 ± 10%,"RBA (relative binding affinity), Rat uterine cytosol [2]: 3; RBA (relative binding affinity), MCF-7 whole cells [3]: 0.02; activity in MCF-7 cell growth tests (in words) (MCF-7 cells): less active than tamoxifen"
"CC/C(=C(\c1ccccc1)c1ccc(OCCN(C)C)cc1)c1ccccc1 [Tamoxifen, Z (1,2-diphenyl)-1-[4-(2-dimethylaminoethoxy)-phenyl]-1-butene]",30 ± 1%,52 ± 1%,–,affinity for the estrogen receptor (ER) (estrogen receptor (ER)): relatively low affinity
"CC/C(=C(/c1ccc(OCCN(C)C)cc1)c1cccc(I)c1)c1ccccc1 [3-Iodotamoxifen, E 1-[4-(2-dimethylaminoethoxy)phenyl]-1-(3-iodophenyl)-2-phenyl-1-butene]",27 ± 5%,68 ± 2%,100 ± 8%,activity in MCF-7 cell growth tests (in words) (MCF-7 cells): about as active as tamoxifen
CC/C(=C(\c1ccc(F)cc1)c1ccc(OCCN(C)C)cc1)c1ccccc1 [fluoro],–,–,–,"estrogen receptor affinity in vitro, compared with tamoxifen (estrogen receptor [4]): approximately equiactive; anti-estrogenic activity, in vivo rat uterine weight tests (rat uterine weight): lower anti-estrogenic activity than tamoxifen; potency compared with tamoxifen (report by K. E. Allen et al.) [1]: of no greater potency than tamoxifen"
"CC/C(=C(/c1ccc(Br)cc1)c1ccc(OCCN(C)C)cc1)c1ccccc1 [Z isomer of 4-bromotamoxifen, reference compound]",174 ± 8%,163 ± 4%,110 ± 3%,–
CC/C(=C(\c1ccc(O)cc1)c1ccc(OCCN(C)C)cc1)c1ccccc1 [4-Hydroxytamoxifen],–,–,–,glucuronidation of the hydroxyl group followed by excretion [5]: rapid glucuronidation of the hydroxyl group followed by excretion; anti-estrogen potency in vitro (estrogen receptor [6]): potent anti-estrogen
CC/C(=C(\c1ccc(Cl)cc1)c1ccc(OCCN(C)C)cc1)c1ccccc1 [chloro],–,–,–,"estrogen receptor affinity in vitro, compared with tamoxifen (estrogen receptor [4]): approximately equiactive; anti-estrogenic activity, in vivo rat uterine weight tests (rat uterine weight): lower anti-estrogenic activity than tamoxifen; potency compared with tamoxifen (report by K. E. Allen et al.) [1]: of no greater potency than tamoxifen"
"CC/C(=C(\c1ccc(I)cc1)c1ccc(OCCN2CCCC2)cc1)c1ccccc1 [Pyrrolidino analogue of 4-iodotamoxifen, E-1-[4-(2-(N-pyrrolidino)ethoxy)phenyl]-1-(4-iodophenyl-2-phenyl-1-butene)]",20 ± 2%,27 ± 3%,84 ± 5%,activity in MCF-7 cell growth tests (in words) (MCF-7 cells): particularly active
"CC/C(=C(\c1ccc(I)cc1)c1ccc(OCCN(C)C)cc1)c1ccccc1 [4-Iodotamoxifen, E 1-[4-(2-dimethylaminoethoxy)phenyl]-1-(4-iodophenyl)-2-phenyl-1-butene]",26 ± 2%,42 ± 6%,115 ± 6%,"RBA (relative binding affinity), Rat uterine cytosol [2]: 30; RBA (relative binding affinity), MCF-7 whole cells [3]: 0.05; potency in relation to estrogen receptor-positive breast cancer [7]: greater potency than tamoxifen"
"CC/C(=C(/c1ccc(I)cc1)c1ccc(OCCN(C)C)cc1)c1ccccc1 [Z isomer of 4-iodotamoxifen, reference compound]",120 ± 3%,126 ± 6%,99 ± 13%,–
CC/C(=C(\c1ccc(I)cc1)c1ccc(OCCN(CC)CC)cc1)c1ccccc1 [E-1-[4-(2-Diethylaminoethoxy)phenyl]-1-(4-iodophenyl)-2-phenyl-1-butene],23 ± 2%,35 ± 5%,101 ± 7%,–
CC/C(=C(\c1ccc(C)cc1)c1ccc(OCCN(C)C)cc1)c1ccccc1 [methyl],–,–,–,"estrogen receptor affinity in vitro, compared with tamoxifen (estrogen receptor [4]): approximately equiactive; anti-estrogenic activity, in vivo rat uterine weight tests (rat uterine weight): lower anti-estrogenic activity than tamoxifen"

# From US4839155A, “Iodotamoxifen derivatives and use for estrogen receptor-positive breast cancer detection and therapy” (National Research Development Corporation, priority 1986, dated 1989)
